Measured values: EP0437336B1, “Biophosphoryl hydrazines and their use as pesticides” (priority 1990, dated 1991)
Converted amounts (≈) assume the structure as drawn. Where two headings read alike, the source gives them in different places.

Assays:
Southern Armyworm = experiment: Biological Method D: Foliar Insecticidal Activity Test, Southern Armyworm test; assay type: in vivo, Spodoptera eridania; parameters: key: I = inactive at concentration listed
Method: (§1) Biological Method D: Foliar Insecticidal Activity Test
(§2) In evaluating the foliar insecticidal activity of the compounds of this invention against insects and mites, the following test procedures were employed.
(§3) Not all compounds were tested at each of the several concentrations stated above. Test concentrations of a compound were selected as those most likely to differentiate dose response of a particular compound toward a particular test insect.
(§4) Initial evaluations were made on one or more of the following pests:
For the Mexican Bean Beetle and Southern armyworm tests, individual lima bean (Phaseolus limeniss var. Woods' Prolific) leaves were placed on moistened pieces of filter paper in Petri dishes. The leaves were then sprayed with the test solution using a rotating turntable and allowed to dry. The dishes were then infested with 10 third instar larvae of either the Mexican Been Beetle or the Southern Armyworm. The dishes were then covered. Percent mortality was determined for each species and spray concentration at 48 and 96 hours after treatment.
(§5) The mortalities obtained in this manner were plotted on logarithmic probability paper.
(§6) The rotating turntable consists of a fixed, continuously operating spray nozzle under which targets are rotated at a fixed speed and distance. If the target is a Petri dish (such as for the bean beetle, armyworm, mite, or aphid tests), the distance from the nozzle is 38.1 cm (15 inches). If the target is a Mason jar (such as for the boll weevil test), the distance from the nozzle is 17.8 cm (7 inches). The nozzle is located 8 inches from the rotating shaft. The targets on individual platforms revolve around the shaft at 1 revolution per 20 seconds but only a brief portion of this time occurs in the spray path. Targets pass only once under the nozzle and then are removed to drying hoods.
(§7) The nozzle used is a 1/4 JCO Spraying Systems (Wheaton, Illinois) air atomizing nozzle equipped with a No. 2850 fluid cap and a No. 70 air cap. At the 68.95 x 10³ Pa gauge (10 psig) air pressure used and with liquid siphon feed, 1.89 ℓ/hr [0.5 GPH (gallons per hour)] are delivered in a round spray pattern with a 21 degree spray angle. Targets are misted with spray droplets to the point that the droplets coalesce to form a uniform thin film insufficient to drown test organisms.

Mexican Bean Beetle = experiment: Biological Method D: Foliar Insecticidal Activity Test, Mexican Bean Beetle test; assay type: in vivo, Epilachna varivestis; conditions: Epilachna varivestis, Method D foliar test, Mexican Bean Beetle
Green Peach Aphid = experiment: Biological Method D: Foliar Insecticidal Activity Test, aphid test; assay type: in vivo, Myzus persicae; parameters: key: I = inactive at concentration listed
Method: as §1, §2, §3, §4
For the aphid test, infested broccoli (Brassica oleracea italica var. DiCicco) leaves containing about 50 aphids were placed in a Petri dish lid on a moistened piece of cotton. The leaves were then sprayed to thorough wetness with the test solution using a rotating turntable, held for twenty-four hours and then the percentage killed was determined.
as §5, §6, §7

[1] = system: southern corn rootworm, Diabrotica undecimpunctata howardi; experiment: Biological Method A: Corn Rootworm Screening Test (treated non-aggressive soil); conditions: soil concentration giving 90% mortality, 10 days at 27°C
[2] = system: southern corn rootworm, Diabrotica undecimpunctata howardi; conditions: for foliar systemic nonagressive Method B crw % control at 0.56 kg/ha (0.5 lb/acre): percent control relative to infested check, from root damage ratings, 14 days post-spraying; for pest or weed control at 560 g/ha: Diabrotica undecimpunctata, in Zea mays, foliar, 336 h, read-out: foliar systemic nonagressive Method B crw % control at 0.56 kg/ha (0.5 lb/acre)
Two-Spotted Spider Mite = experiment: Biological Method D: Foliar Insecticidal Activity Test, mite test; assay type: in vivo, Tetranychus urticae; parameters: key to LC50 TSM: I = inactive at concentration listed; conditions: Method D foliar test, Two-Spotted Spider Mite; for LC50: Tetranychus urticae, read-out: LC50 TSM
Boll Weevil [3] = experiment: Biological Method D: Foliar Insecticidal Activity Test, boll weevil test; assay type: in vivo, Anthonomous grandis; parameters: key: I = inactive at concentration listed
Method: as §1, §2, §3, §4
(§8) For the boll weevil test, 10 adult weevils were placed in a 0.24 ℓ (0.5 pint) glass Mason jar containing a small cube of apple. The weevils were confined to the jar by fiberglass screen mesh secured by a screw-type rim cap. The jars were then sprayed with the test solution using a rotating turntable; directing the spray through the mesh into the jar. The percentage killed was determined after forty-eight and ninety six hours.
as §5, §6, §7

Boll Weevil [4] = experiment: as above; assay type: in vivo, Anthonomous grandis; conditions: Method D foliar test; Boll Weevil; 96 hrs
Method: as §1, §2, §3, §4, §8, §5, §6, §7

[5] = 48 hrs, read-out: LC50 BB 48 hrs.
[6] = 96 hrs, read-out: LC50 BB 96 hrs

| Compound | LC50 AW 48 hrs (Southern Armyworm) | LC50 AW 96 hrs (Southern Armyworm) | LC50 (Mexican Bean Beetle; [5]) | LC50 GPA (Green Peach Aphid) | primary nonagressive Method A crw LC90 [1] | foliar systemic nonagressive Method B crw % control at 0.56 kg/ha (0.5 lb/acre) [2] | LC50 (Two-Spotted Spider Mite) | LC50 BW 48 hrs (Boll Weevil [3]) | LC50 BW 96 hrs (Boll Weevil [3]) | LC50 (Mexican Bean Beetle; [6]) | pest or weed control at 560 g/ha [2] | LC50 TSM (Two-Spotted Spider Mite) | LC50 BW 96 hrs (Boll Weevil [4]) |
| --- | --- | --- | --- | --- | --- | --- | --- | --- | --- | --- | --- | --- | --- |
| CCCOP(=S)(NNP(=S)(OCC)OCC)OCC (centres unmarked) [Compound 6] | I | I | 420 µg/mL (≈ 1200 µM) | I | <0.1 ppm | 3% | 150 µg/mL (≈ 428 µM) | I | I | – | – | – | – |
| CCOP(=S)(NNP(=S)(OCC)O[C@H]1C[C@@H](C)CC[C@@H]1C(C)C)OCC (some centres unmarked) [Compound 35] | I | I | 250 µg/mL (≈ 560 µM) | I | 0.77 ppm | – | – | I | I | 52 µg/mL (≈ 116 µM) | 38% | I | – |
| CCCNP(=S)(NNP(=S)(OCC)OCC)OCC (centres unmarked) [Compound 24] | I | I | 27 µg/mL (≈ 77.3 µM) | I | 1.1 ppm | 38% | – | I | – | 31 µg/mL (≈ 88.7 µM) | – | I | 380 ppm |
| CCCOP(=S)(NNP(=S)(OCC)OCC)OCCC [Compound 13, reference compound] | I | I | 150 µg/mL (≈ 412 µM) | I | <0.1 ppm | 46% | – | I | I | 52 µg/mL (≈ 143 µM) | – | I | – |
| CCOP(=S)(NNP(=S)(OCC)OC(C)C(F)(F)F)OCC (centres unmarked) [Compound 15] | I | I | 150 µg/mL (≈ 371 µM) | I | <0.1 ppm | – | – | I | I | 62 µg/mL (≈ 153 µM) | 54% | I | – |
| CCOP(=S)(NNP(=S)(OCC)OC(C)C)OCC (centres unmarked) [Compound 5] | I | I | 740 µg/mL (≈ 2110 µM) | I | <0.1 ppm | 69% | 150 µg/mL (≈ 428 µM) | I | I | – | – | – | – |
| C#CCOP(=S)(NNP(=S)(OCC)OCC)OCC (centres unmarked) [Compound 12] | I | I | 150 µg/mL (≈ 433 µM) | I | 0.56 ppm | 30% | – | I | I | 62 µg/mL (≈ 179 µM) | – | I | – |
| CCCCOP(=S)(NNP(=S)(OCC)OCC)OCC (centres unmarked) [Compound 7] | I | I | – | I | 0.25 ppm | 38% | 150 µg/mL (≈ 412 µM) | I | I | – | – | – | – |
| CCOP(=S)(NNP(=S)(OCC)OC(C)(C(F)(F)F)C(F)(F)F)OCC (centres unmarked) [Compound 39] | I | I | 31 µg/mL (≈ 65.6 µM) | I | 0.71 ppm | – | 150 µg/mL (≈ 318 µM) | I | I | 150 µg/mL (≈ 318 µM) | 46% | – | – |
| C=CCOP(=S)(NNP(=S)(OCC)OCC)OCC (centres unmarked) [Compound 10] | I | I | – | I | 0.79 ppm | 34% | 510 µg/mL (≈ 1460 µM) | I | I | 78 µg/mL (≈ 224 µM) | – | – | – |
